Reference: patent US20050222408A1, “Heterocyclic amides with anti-tuberculosis activity” (priority 2003, published 2005)
In brackets after ≈: the same amount, converted by molar mass. Entries after “also recorded” stand apart in the source; their conditions may differ. Read-outs that look alike come from different tables or passages of the source.

Key:
Vero cells = assay: Cytotoxicity, alamar blue assay against Vero cells; assay type: cell-based; conditions: for ToxIC50: unit not given; for IC50: Chlorocebus sabaeus, read-out: ToxIC50; for selectivity index (SI): summary b276
[1] = molecular target: UDP-galactose mutase (Glf) (Mycobacterium tuberculosis, UniProt P9WIQ1); assay: Microtitre plate based screen of Glf (enzymatic inhibition); assay type: biochemical
Chain of UDP-galactose mutase (Glf) (P9WIQ1 whole entry): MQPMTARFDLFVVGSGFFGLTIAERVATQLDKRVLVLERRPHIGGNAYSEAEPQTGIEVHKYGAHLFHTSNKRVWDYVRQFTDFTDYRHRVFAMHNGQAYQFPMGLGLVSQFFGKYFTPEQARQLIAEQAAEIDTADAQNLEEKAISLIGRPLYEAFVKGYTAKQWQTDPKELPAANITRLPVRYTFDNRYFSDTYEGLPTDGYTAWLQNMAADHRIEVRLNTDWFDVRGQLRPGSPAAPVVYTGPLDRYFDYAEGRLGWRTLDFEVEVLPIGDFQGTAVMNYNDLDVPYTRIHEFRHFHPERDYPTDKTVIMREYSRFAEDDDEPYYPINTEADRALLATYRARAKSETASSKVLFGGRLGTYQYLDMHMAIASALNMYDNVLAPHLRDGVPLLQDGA

[2] = Maximum Tolerated Dose (MTD), single oral dose in mice; conditions: escalating dose 100, 300 and 500 mg/kg by oral gavage
Method: An assay for Maximum Tolerated Dose (MTD) was also utilized. […] Three different concentrations are tested, generally at 100, 300 and 500 mg/kg. The latter dose is about twice to five times the dose used for efficacy testing of the compound in mice. After 7 days of observation the mice are sacrificed and the organs are studied for any adverse effects. In case of abnormalities the organs are fixed in formalin and given for extensive pathology analysis.
Maximum tolerated dosing was performed on these selected compounds. An escalating dose of drug (100, 300 and 500 mg/kg) was given to mice by oral gavage.

M. tuberculosis = assay type: in vivo, mice; conditions: for viable M. tuberculosis, Spleen ± SEM: untreated controls 6.7 ± 0.16; for viable M. tuberculosis, Lungs ± SEM: untreated controls 8.0 ± 0.17
M. tuberculosis H37Ra = assay: MIC against M. tuberculosis H37Ra, micro broth dilution in microtiter plates; conditions: M. tuberculosis H37Ra; for TB MIC: Table 1; for TB MIC / MIC: 7 days at 37° C., MIC90; for MIC: Mycobacterium tuberculosis, H37RA, 168 h, read-out: TB MIC, Table 1
[3] = Table 1, Vero cells, alamar blue
[4] = Table 1, Vero cells, alamar blue, unit inferred

In the case of `O=C(Nc1cccc(Cl)c1)c1ccc([N+](=O)[O-])o1` [Compound 10, 5-Nitro-furan-2-carboxylic acid(3-chloro-phenyl)-amide], the ToxIC50 (Vero cells; [3]) is reported as 6.86, the “Glf inhibition” value [1] is reported as “best inhibitors of Glf” and the “Maximum tolerated dosing, effect observed” value (“Maximum tolerated dosing” for short) [2] is reported as “no effect at the maximum dose”. For the same compound, the “viable M. tuberculosis, Spleen ± SEM” value (M. tuberculosis; 300 mg/kg) was 7.3 ± 0.12 and the “viable M. tuberculosis, Lungs ± SEM” value (M. tuberculosis; 300 mg/kg) was 8.3 ± 0.21.

In the case of `O=C(Nc1cccc(F)c1)c1ccc([N+](=O)[O-])o1` [Compound 12, 5-Nitro-furan-2-carboxylic acid(3-fluoro-phenyl)-amide], the ToxIC50 (Vero cells; [3]) is reported as 9.29, the “Maximum tolerated dosing” value [2] is reported as “no effect at the maximum dose” and the “viable M. tuberculosis, Spleen ± SEM” value (M. tuberculosis; 300 mg/kg) is reported as 7.0 ± 0.11. For the same compound, the “viable M. tuberculosis, Lungs ± SEM” value (M. tuberculosis; 300 mg/kg) was 8.4 ± 0.24 and the “TB MIC” value (M. tuberculosis H37Ra) was 0.8 µg/mL.

In the case of `COc1cccc(NC(=O)c2ccc([N+](=O)[O-])o2)c1` [Compound 13, 5-Nitro-furan-2-carboxylic acid(3-methoxy-phenyl)-amide], the ToxIC50 (Vero cells; [3]) is reported as 18.63, the “Glf inhibition” value [1] is reported as “best inhibitors of Glf” and the “Maximum tolerated dosing” value [2] is reported as “some pathology at 500 mg/kg”. For the same compound, the “viable M. tuberculosis, Spleen ± SEM” value (M. tuberculosis; 150 mg/kg) was 7.2 ± 0.07, the “viable M. tuberculosis, Lungs ± SEM” value (M. tuberculosis; 150 mg/kg) was 8.0 ± 0.3 and the “TB MIC” value (M. tuberculosis H37Ra) was 0.8 µg/mL.

For `COc1ccc(CNC(=O)c2ccc([N+](=O)[O-])o2)cc1OC` [Compound 23, 5-Nitro-furan-2-carboxylic acid 3,4-dimethoxy-benzylamide], the IC50 (Vero cells; Vero) was 18.2 µg/mL (≈ 59.3 µM), the “selectivity index (SI)” value (Vero cells) was 90.9 and the “Maximum tolerated dosing” value [2] was “no effect at the maximum dose”. The “viable M. tuberculosis, Spleen ± SEM” value (M. tuberculosis; 300 mg/kg) was 6.0 ± 0.19, the “viable M. tuberculosis, Lungs ± SEM” value (M. tuberculosis; 300 mg/kg) was 6.5 ± 0.25 and the “oral activity against M. tuberculosis in the mouse infection model” value (M. tuberculosis; oral) was “significant oral activity”. For the same compound, the “anti-tuberculosis MIC activity” value (M. tuberculosis H37Ra) was “as active as ethambutol and streptomycin”.

With `CC(NC(=O)c1ccc([N+](=O)[O-])o1)c1ccccc1` (stereo not shown) [Compound 30, 5-Nitro-furan-2-carboxylic acid(1-phenyl-ethyl)-amide] the ToxIC50 (Vero cells; [3]) was 23.59 and the “TB MIC” value (M. tuberculosis H37Ra) was 3.1 µg/mL.

Compound `COc1ccc(CCNC(=O)c2ccc([N+](=O)[O-])o2)cc1OC` [Compound 31, 5-Nitro-furan-2-carboxylic acid [2-(3,4-dimethoxy-phenyl)-ethyl]-amide] has an IC50 (Vero cells; Vero) of 27.4 µg/mL (≈ 85.7 µM) and an MIC (M. tuberculosis H37Ra) of 0.4 µg/mL (≈ 1.25 µM).

`COc1cccc(NC(=O)c2ccc(Br)o2)c1` [Compound 33, 5-Bromo-furan-2-carboxylic acid(3-methoxy-phenyl)-amide] showed an IC50 (Vero cells; [4]) of 61.2 µg/mL (≈ 207 µM) and an MIC (M. tuberculosis H37Ra) of 100 µg/mL (≈ 338 µM).

`COc1cccc(NC(=O)c2ccc(Sc3ccccc3)o2)c1` [Compound 36, 5-Phenylsulfanyl-furan-2-carboxylic acid(3-methoxy-phenyl)-amide] showed an IC50 (Vero cells; [4]) of 25.7 µg/mL (≈ 79 µM) and an MIC (M. tuberculosis H37Ra) of 25 µg/mL (≈ 76.8 µM).

With `O=C(NCc1ccc(N2CCN(Cc3ccccc3)CC2)cc1)c1ccc([N+](=O)[O-])o1` [Compound 66, 5-Nitro-furan-2-carboxylic acid 4-(4-benzyl-piperazin-1-yl)-benzylamide] the “selectivity index (SI)” value (Vero cells) was 1597 and the “anti-tuberculosis MIC activity” value (M. tuberculosis H37Ra) was “extremely potent; also recorded: more active than isoniazid”.

In the case of `NNC(=O)c1ccncc1` [Isoniazid, reference compound], the “viable M. tuberculosis, Spleen ± SEM” value (M. tuberculosis; 25 mg/kg) is reported as 3.2 ± 0.21 and the “viable M. tuberculosis, Lungs ± SEM” value (M. tuberculosis; 25 mg/kg) is reported as 5.5 ± 0.21.

With `Cc1ncc([N+](=O)[O-])n1CCO` [Metronidazole, reference compound] the “viable M. tuberculosis, Spleen ± SEM” value (M. tuberculosis; 150 mg/kg) was 6.9 ± 0.04 and the “viable M. tuberculosis, Lungs ± SEM” value (M. tuberculosis; 150 mg/kg) was 8.5 ± 0.18.
